# Entries after “also recorded” stand apart in the source; their conditions may differ. Where two headings read alike, the source gives them in different places.
# Tests used:
# [1] = system: phenylbenzoquinone-induced writhing; settings: Garret et al.; cited from earlier work
# formalin test = settings: Garret et al.; cited from earlier work
# [2] = system: nociceptive spinal reflexes; assay: animal or person; format: in vivo, rabbit (male New Zealand white); settings: for ED50: Oryctolagus cuniculus, iv; for Effect on baseline, facilitation and wind-up responses: all three measures, FIG. 1, 2, 4
# Method: Male New Zealand white rabbits (2.5-3.5 kg) were anaesthetised by an injection of 0.9% alphaxalone and 0.3% alphadolone (Saffan) directly into an ear vein. A cervical spinalization was performed and the cerebral cortex removed (decerebration) allowing anaesthesia to be discontinued. The left hind limb was shaved and a bipolar recording electrode inserted into the biceps femoris/semitendinous muscle. A noxious stimulus was applied to the area of the receptive field of the motor units to the skin of the foot. Single shocks (1 ms square pulses; 2 times threshold) were applied at a rate of 1 per minute. The conditioning stimulus was 20 of these impulses at a rate of 1 Hz, producing wind-up. The baseline parameters were again applied 20 seconds following the conditioning stimulus, the first of these stimuli is termed the facilitation of the baseline response. Injections were administered at 15 minute intervals, the first two always being the relevant drug vehicle. The time-course of events throughout the experiment was as shown below:
# t=0 mins: Dose with vehicle (i.v.).
# t=40 sec: Begin baseline stimulation (1 per minute).
# t=10 mins: Conditioning stimulus applied (20 @ 1 Hz; wind-up).
# t=10 mins 40 secs: Baseline stimulation resumes (Initial baseline response equates to facilitation).
# t=15 mins: Dose with vehicle (i.v.).
# t=25 mins: Conditioning stimulus applied.
# t=25 mins 40 secs: Baseline stimulation resumes.
# t=30 mins: Dose with test compound (i.v.).
# t=40 mins: Conditioning stimulus applied.
# t=40 mins 40 secs: Baseline stimulation resumes.
# t=45 mins and every 15 minutes thereafter: Drug treatment (i.v.).
# t=55 mins and every 15 minutes thereafter: Conditioning stimulus applied.
# 40 seconds after each conditioning stimulus baseline stimulation is resumed.
# In each experiment the values obtained to the second vehicle were used as the control response. Each of the values obtained with drug treatment was expressed as a percentage of the control response. In the case of changes in baseline the last four values obtained prior to the conditioning response were taken to represent baseline activity. The effect of drug treatment was determined by comparing the baseline post-drug to the control baseline. Four rabbits were used in each experiment unless otherwise stated.
# morphine-induced emesis = settings: ferrets; cited from earlier work
# [3] = baseline, i.v., decerebrate, spinalized rabbit, read-out: Approximate ID50, inhibition of baseline firing rate
# [4] = facilitation, i.v., decerebrate, spinalized rabbit, read-out: Approximate ID50, inhibition of facilitation
# [5] = wind-up, i.v., decerebrate, spinalized rabbit, read-out: Approximate ID50, inhibition of wind-up
smiles,measurement,setting,value
"COc1ccccc1CC(=N)N1C[C@@H]2C(=O)CCC(c3ccccc3)(c3ccccc3)[C@@H]2C1 [RP 67,580]","Analgesia potency relative to morphine, phenylbenzoquinone-induced writhing",[1],potency comparable to that of morphine
same,"Analgesia potency relative to morphine, formalin test",formalin test,potency comparable to that of morphine
"CN1CC[C@]23c4c5ccc(O)c4O[C@H]2[C@@H](O)C=C[C@H]3[C@H]1C5 [Morphine, morphine]","Approximate ID50, inhibition of baseline firing rate","[2]; baseline, i.v., decerebrate, spinalized rabbit",0.5 mg/kg
same,"Approximate ID50, inhibition of facilitation","[2]; facilitation, i.v., decerebrate, spinalized rabbit",0.5 mg/kg
same,"Effect of morphine pre-treatment on CP-99,994 induced inhibition of each measure","[2]; morphine 0.5 mg/kg i.v. prior to CP-99,994 dose response curve, FIG. 3","failed to attenuate the CP-99,994 induced inhibition of each measure"
same,"Approximate ID50, inhibition of wind-up","[2]; wind-up, i.v., decerebrate, spinalized rabbit",0.5 mg/kg
"COc1ccccc1CN[C@@H]1CCCN[C@@H]1c1ccccc1 [CP-100,263]",ED50,[2]; [3],> 1 mg/kg
same,ED50,[2]; [4],> 1 mg/kg
same,ED50,[2]; [5],> 1 mg/kg
same,"Effect on baseline, facilitation and wind-up responses",[2]; i.v.,"did not inhibit baseline, facilitation or wind-up responses; also recorded: lack of effect"
"COc1ccccc1CN[C@H]1CCCN[C@H]1c1ccccc1 [CP-99,994]",Facilitation of nociceptive spinal reflexes,"[2]; CP-99,994 1-100 μg/kg i.v.",reduce facilitation of nociceptive spinal reflexes
same,ED50,[2]; [3],0.05 mg/kg
same,ED50,[2]; [4],0.008 mg/kg
same,ED50,[2]; [5],0.01 mg/kg
same,"Effect on baseline, facilitation and wind-up responses",[2]; i.v.,dose-dependent reduction in all three measures
same,"Antagonism of the anti-nociceptive effects of morphine by CP-99,994","[2]; rabbit, in vivo",not antagonised
same,"Effect of CP-99,994 and morphine given together on the nociceptive reflex","[2]; rabbit, in vivo",appeared to be additive to those of morphine
same,Emetic response to morphine,morphine-induced emesis,attenuate the emetic response to morphine

# From US6180624A (priority 1994, dated 2001)
